Laboratory results as given in US7799775B2, “Pyrimidine derivatives” (ASKA Pharmaceutical Co., Ltd., priority 2004, dated 2010).

Tests used:
human 5-HT1A receptor = biological target: T1, human 5-HT1A receptor (Homo sapiens, UniProt P08908); assay: Affinity measurement of the compounds to human 5-HT1A receptor (in vitro), [3H]8-OH-DPAT binding; conditions: test compound 100 nmols/L; [3H]8-OH-DPAT 0.25 nmols/L; CHO cell membrane expressing human 5-HT1A receptor; read-out: Percent Inhibition (%) on Each Receptor's Binding at 10^−7M, 5-HT1A
T1 construct: purchased Packard Bioscience; host or cells: CHO cells (membrane preparation)
T1 sequence (P08908 1-422): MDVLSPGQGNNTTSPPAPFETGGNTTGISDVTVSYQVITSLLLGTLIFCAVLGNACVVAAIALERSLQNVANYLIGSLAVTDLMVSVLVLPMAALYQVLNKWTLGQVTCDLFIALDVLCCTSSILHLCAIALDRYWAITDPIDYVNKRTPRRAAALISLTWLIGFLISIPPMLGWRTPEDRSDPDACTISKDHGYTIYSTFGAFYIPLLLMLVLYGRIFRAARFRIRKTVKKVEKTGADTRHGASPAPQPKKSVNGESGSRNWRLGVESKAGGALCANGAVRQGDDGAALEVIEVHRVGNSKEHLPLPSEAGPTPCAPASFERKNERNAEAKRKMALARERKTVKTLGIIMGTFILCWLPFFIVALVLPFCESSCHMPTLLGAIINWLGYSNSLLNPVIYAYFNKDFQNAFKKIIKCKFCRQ
Summary of the method: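 Membranes from CHO cells expressing human 5-HT1A were incubated 60 min at 27 °C with 0.25 nmol/L [3H]8-OH-DPAT and compound in Tris/MgSO4/EDTA/ascorbate buffer, pH 7.4. Bound radioactivity was collected on PEI-soaked GF/C filters and counted; percent inhibition was corrected for non-specific binding defined with 10 μmol/L 8-OH-DPAT.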

[1] = tested on: rats under restraint stress; assay: Measurement of defecation acceleration in rats under restraint stress; format: in vivo, rat; conditions: 1 hour restraint stress, group average (Normal 1.7, Control 6.8)
Description: (5) Measurement of Defecation Acceleration in Rats under Restraint Stress […] Feed and drinking water were left for their free ingestion until the morning of the day on which the test was given. On the day of the experiment, test compounds were orally administered and positive control solution (the used compounds were dissolved in 1N-hydrochloric acid and diluted with a suitable amount of saline) was administered intraperitoneally. Five (5) minutes thereafter, under lightly anesthetized condition, the rats were placed under restraint stress, with their upper half of the bodies including the front feet immobilized with gum tape. The restraint stress loading was conducted for an hour, and the number of excrements discharged during that period was counted. […] Those compounds which were used as the positive control chemicals used in the acceleration of defecation in rats under restraint stress are identified with the following structures.

SMILES	inhibition at 0.1 µM (human 5-HT1A receptor) [%]	further results
c1cc2ccsc2c(N2CCN3CCC[C@H]3C2)n1 [Production Example 103, 7-((8aS)-octahydropyrrolo[1,2-a]pyrazin-2-yl)thieno[2,3-c]pyridine]	91.4	–
Cc1ccc2ccnc(N3CCN(C)CC3)c2c1 [Production Example 47, 7-methyl-1-(4-methylpiperazin-1-yl)isoquinoline]	90.6	–
c1cc2ccsc2c(N2CCN3CCC[C@@H]3C2)n1 [Production Example 108, 7-((8aR)-octahydropyrrolo[1,2-a]pyrazin-2-yl)thieno[2,3-c]pyridine]	90.6	–
COc1ccc2ccnc(N3CCNC(C)C3)c2c1 (stereo not shown) [Production Example 38, 7-methoxy-1-(3-methylpiperazin-1-yl)isoquinoline]	94.8	–
Nn1c(CCCCN2CCN(c3ccc4ccccc4n3)CC2)nc2ccccc2c1=O [Example 4-3, 3-amino-2-[4-(4-quinolin-2-ylpiperazin-1-yl)butyl]-3H-quinazolin-4-one]	98.2	–
c1cc2sccc2c(N2CCN3CCC[C@H]3C2)n1 [Production Example 104, 4-((8aS)-octahydropyrrolo[1,2-a]pyrazin-2-yl)thieno[3,2-c]pyridine]	85.5	–
Nn1c(CCCCN2CCN(c3ccc4ccccc4n3)CC2)nc2c(c1=O)CCCC2 [Example 4-1, 3-amino-2-[4-(4-quinolin-2-ylpiperazin-1-yl)butyl]-5,6,7,8-tetrahydro-3H-quinazolin-4-one]	101	Number of excrements ([1]; 0.3 mg/kg intraperitoneal administration): 5.3; Number of excrements ([1]; 1 mg/kg intraperitoneal administration): 4.3; Number of excrements ([1]; 3 mg/kg intraperitoneal administration): 2.1
CCn1c(CCCCN2CCN(c3cc(C)c4ccccc4n3)CC2)nc2c(c1=O)CCCC2 [Example 7-7, 3-ethyl-2-[4-[4-(4-methylquinolin-2-yl)piperazin-1-yl]butyl]-5,6,7,8-tetrahydro-3H-quinazolin-4-one]	96.9	–
Clc1ccc2ccnc(N3CCN4CCC[C@H]4C3)c2c1 [Production Example 73, 7-chloro-1-((8aS)-octahydropyrrolo[1,2-a]pyrazin-2-yl)isoquinoline]	98.3	–
Clc1ccc2ccnc(N3CCNCC3)c2c1 [Production Example 49, 7-chloro-1-piperazin-1-ylisoquinoline]	88.7	–
c1cc2ccoc2c(N2CCN3CCC[C@H]3C2)n1 [Production Example 102, 7-((8aS)-octahydropyrrolo[1,2-a]pyrazin-2-yl)furo[2,3-c]-pyridine]	95.4	–
Cc1cc(N2CCN(CCCCc3nc4ccccc4c(=O)n3N)CC2)nc2ccccc12 [Example 4-4, 3-amino-2-[4-[4-(4-methylquinolin-2-yl)piperazin-1-yl]butyl]-3H-quinazolin-4-one]	98.7	–
CN1CCN(c2nccc3ccsc23)CC1 [Production Example 6, 7-(4-methylpiperazin-1-yl)thieno[2,3-c]pyridine]	90.1	–
Cc1cc2c(N3CCN4CCC[C@H]4C3)nccc2s1 [Production Example 107, 4-((8aS)-octahydropyrrolo[1,2-a]pyrazin-2-yl)-2-methylthieno[3,2-c]-pyridine]	98.5	–
Nn1c(CCCCN2CCN(c3ccc4ccccc4n3)CC2)nc2ccsc2c1=O [Example 4-18, 3-amino-2-[4-(4-quinolin-2-ylpiperazin-1-yl)butyl]-3H-thieno[3,2-d]-pyrimidin-4-one]	98	–
Nn1c(CCCCN2CCN(c3ccc4ccccc4n3)CC2)nc2cccc(Cl)c2c1=O [Example 4-25, 3-amino-5-chloro-2-[4-(4-quinolin-2-ylpiperazin-1-yl)butyl]-3H-quinazolin-4-one]	99.4	–
Cn1c(CCCCN2CCN(c3ccc4ccccc4n3)CC2)nc2c(c1=O)CCCC2 [Example 7-1, 3-methyl-2-[4-(4-quinolin-2-ylpiperazin-1-yl)butyl]-5,6,7,8-tetrahydro-3H-quinazolin-4-one]	97.5	Number of excrements ([1]; 1 mg/kg oral administration): 5.8; Number of excrements ([1]; 3 mg/kg oral administration): 3.8; Number of excrements ([1]; 10 mg/kg oral administration): 2.3
Cn1c(CCCCN2CCN(c3ccc4ccccc4n3)CC2)nc2ccccc2c1=O [Example 7-20, 3-methyl-2-[4-(4-quinolin-2-ylpiperazin-1-yl)butyl]-3H-quinazolin-4-one]	101	Number of excrements ([1]; 1 mg/kg oral administration): 5.4; Number of excrements ([1]; 3 mg/kg oral administration): 3.6; Number of excrements ([1]; 10 mg/kg oral administration): 2.4
COc1ccc2ccnc(N3CCN4CCC[C@H]4C3)c2c1 [Production Example 72, 1-((8aS)-octahydropyrrolo[1,2-a]pyrazin-2-yl)-7-methoxyisoquinoline]	96.7	–
CN1CCN(c2nccc3sccc23)CC1 [Production Example 8, 4-(4-methylpiperazin-1-yl)thieno[3,2-c]pyridine]	78.3	–
Cc1cc(N2CCN(CCCCc3nc4c(c(=O)n3C)CCCC4)CC2)nc2ccccc12 [Example 7-6, 3-methyl-2-[4-[4-(4-methylquinolin-2-yl)piperazin-1-yl]butyl]-5,6,7,8-tetrahydro-3H-quinazolin-4-one]	97.4	Number of excrements ([1]; 1 mg/kg oral administration): 5.4; Number of excrements ([1]; 3 mg/kg oral administration): 4.0; Number of excrements ([1]; 10 mg/kg oral administration): 2.9
CCn1c(CCCCN2CCN(c3ccc4ccccc4n3)CC2)nc2c(c1=O)CCCC2 [Example 7-2, 3-2-[4-(4-quinolin-2-ylpiperazin-1-yl)butyl]-5,6,7,8-tetrahydro-3H-quinazolin-4-one]	93.3	–
